Patent US5336496A, “Inhibitor for delta 5-desaturase” (Suntory Limited, priority 1989, dated 1994)
Where two headings read alike, the source gives them in different places.

Columns and labels:
Δ^6 -desaturase = molecular target: T1, Δ^6 -desaturase (Rattus norvegicus, UniProt Q9Z122); test: Inhibition of Δ6-desaturase in rat liver microsome ([1-14C]-linoleic acid substrate); type: biochemical, rat (Wister male); conditions: read-out: Inhibition on Δ^6 - (%)
T1 construct: The pellet was suspended in the homogenization solution to obtain a microsome solution; from tissue; host or cells: liver microsomes of a male Wistar rat
T1 sequence (Q9Z122 whole entry, stated change not applied): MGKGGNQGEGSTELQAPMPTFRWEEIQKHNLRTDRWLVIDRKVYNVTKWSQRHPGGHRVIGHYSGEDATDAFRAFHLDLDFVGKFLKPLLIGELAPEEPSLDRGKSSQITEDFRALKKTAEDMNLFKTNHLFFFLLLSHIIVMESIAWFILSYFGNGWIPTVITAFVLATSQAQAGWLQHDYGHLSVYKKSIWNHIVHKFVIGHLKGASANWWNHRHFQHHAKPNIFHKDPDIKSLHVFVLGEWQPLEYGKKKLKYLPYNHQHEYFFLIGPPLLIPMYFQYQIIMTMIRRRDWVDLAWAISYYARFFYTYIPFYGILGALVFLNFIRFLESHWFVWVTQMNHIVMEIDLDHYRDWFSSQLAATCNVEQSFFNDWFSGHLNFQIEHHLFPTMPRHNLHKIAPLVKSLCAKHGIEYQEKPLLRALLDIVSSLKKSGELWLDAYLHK

Δ^5 -desaturase = molecular target: T2, Δ^5 -desaturase (Rattus norvegicus, UniProt Q920R3); test: Inhibition of Δ5-desaturase in rat liver microsome (conversion of [2-14C]-dihomo-γ-linolenic acid to arachidonic acid); type: biochemical, rat (Wister male); conditions: for inhibition at 30 µg/mL: read-out: Inhibition on Δ^5 -desaturase (%); for specific inhibition of Δ^5 -desaturase / inhibition of Δ^5 -desaturation reaction from dihomo-γ-linolenic acid to arachidonic acid: in words; for specific inhibition of Δ^5 -desaturase: figure legends, compared with Δ^6 -desaturase (and Δ^9 -desaturase for sesamin); for inhibition of Δ^5 -desaturation reaction from dihomo-γ-linolenic acid to arachidonic acid: 0.001 to 0.5 mg/ml, FIGS. 1, 2 and 3, rat liver microsome
T2 construct: from tissue; host or cells: liver microsomes of a male Wistar rat
T2 sequence (Q920R3 whole entry, stated change not applied): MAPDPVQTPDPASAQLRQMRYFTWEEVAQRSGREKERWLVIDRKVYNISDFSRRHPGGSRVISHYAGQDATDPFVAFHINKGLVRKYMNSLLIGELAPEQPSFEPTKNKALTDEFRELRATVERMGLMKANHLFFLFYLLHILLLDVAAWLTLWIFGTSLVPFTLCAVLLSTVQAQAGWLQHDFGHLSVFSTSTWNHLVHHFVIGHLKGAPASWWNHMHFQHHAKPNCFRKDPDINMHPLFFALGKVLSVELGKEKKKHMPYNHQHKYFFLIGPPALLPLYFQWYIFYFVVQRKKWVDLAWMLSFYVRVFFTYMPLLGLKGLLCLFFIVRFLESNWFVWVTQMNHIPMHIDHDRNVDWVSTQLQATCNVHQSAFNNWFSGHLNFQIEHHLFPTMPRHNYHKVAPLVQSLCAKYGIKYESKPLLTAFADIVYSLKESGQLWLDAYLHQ
Procedure: As a homogenization solution, a 50 mM phosphate buffer (pH 7.4) containing 0.15M KCl, 5 mM MgCl2.6H2 O, 1 mM EDTA, 0.25M saccharose and 1.5 mM glutathione was used. The liver of a Wister male rat was perfused with physiological saline and removed, and to the removed liver was added 4-fold by weight of the homogenization solution, and the whole was homogenized. The homogenate was centrifuged at 10,000×g for 20 minutes to obtain a supernatant, which was centrifuged at 100,000×g for one hour to obtain a pellet. The pellet was suspended in the homogenization solution to obtain a microsome solution containing 12.24 mg/ml protein. The above-mentioned procedures were carried out at 4° C.
To assay the Δ^5 -desaturase activity 100 μl of the rat liver microsome solution was added to 1 ml of 0.1M phosphate buffer (PH7.4) containing 0.25M saccharose, 0.15M KCl, 1.5 mM glutathione, 45 mM NaF, 0.5 mM nicotinamide, 5 mM MgCl2.6H20 O, 7.5 mM ATP, 0.4 mM CoA.Na2, 1.5 mM NADH, and 100 μM dihomo-γ-linolenic acid containing 0.1 μCi (1.7 nmoles) [2-^14 C]-dihomo-γ-linolenic acid per 1 ml, the mixture was incubated at 37° C for one hour, followed by an addition of 5 ml of ethanol to terminate the reaction. To the reaction mixture was added 1 ml of 4N KOH, and mixture was incubated at 60° C for 30 minutes for saponification. After the reaction, 3 ml of water, 100 μg of dihomo-γ-linolenic acid and 1 ml of 6N HCl were added thereon, and fatty acids in the reaction mixture were extracted twice with 5 ml of hexane. The extract was evaporated in a centrifuge evaporator and 1 ml of ethyl ether/methanol (9:1) was added to the residue, and the fatty acids were methylated with diazomethane. After allowing to stand at a room temperature for 30 minutes, the reaction mixture was evaporated in a centrifuge evaporator to remove the solvent, whereby methyl esters of the resulting fatty acids were obtained. The esters were separated on a 10% AgNO3 silica gel plate using petroleum ether/ethyl ether (1:1) as a developing solvent. Silica gel portions corresponding to the substrate dihomo-γ-linolenic acid and the product arachidonic acid respectively were peeled off, and to 5 ml of toluene-based scintillation fluid solution was added to the silica gel to measure the radioactivity by a scintillation counter. The radioactivity of the generated arachidonic acid was determined by subtracting a radioactivity at the onset of the reaction from a radioactivity after the reaction.
The enzyme inhibitory activities of sesamin, episesamin and sesamomolin were measured according to the above-mentioned procedure, except that the reaction mixture contained 0.001 to 0.5 mg/ml sesamin, episesamin or sesamolin. The radioactivity was measured as described above, and the percent inhibition was calculated.

SMILES | inhibition at 30 µg/mL (Δ^6 -desaturase; 0.03 mg/ml, rat liver microsome) [%] | inhibition at 30 µg/mL (Δ^6 -desaturase) [%] | inhibition at 30 µg/mL (Δ^5 -desaturase) [%] | specific inhibition of Δ^5 -desaturase (Δ^5 -desaturase) | inhibition of Δ^5 -desaturation reaction from dihomo-γ-linolenic acid to arachidonic acid (Δ^5 -desaturase)
COc1cc(/C=C/C(=O)CC(=O)/C=C/c2ccc(O)c(OC)c2)ccc1O [Curcumin] | 36.1 | – | – | – | –
CCCCOCCOCCOCc1cc2c(cc1CCC)OCO2 [Piperonyl butoxide] | – | 0 | 32.5 | – | –
c1cc2c(cc1O[C@H]1OC[C@H]3[C@@H]1CO[C@@H]3c1ccc3c(c1)OCO3)OCO2 [Sesamolin] | – | – | – | specifically inhibits | inhibited
c1cc2c(cc1[C@H]1OC[C@H]3[C@@H]1CO[C@@H]3c1ccc3c(c1)OCO3)OCO2 [Sesamin] | – | 0 | 39.2 | specifically inhibits | inhibited
